From ChEMBL document CHEMBL3526130, “An evaluation of using rat-derived single-dose neuropharmacokinetic parameters to project accurately large animal unbound brain drug concentrations” (Drug Metab Dispos, 2012) come the findings set out here.

What all share (assay type): ADME, organism-based
A short description of data set [1]: AUC(0 to 7 hrs) in Sprague-Dawley rat plasma at 10 mg/kg, sc by LC-MS/MS analysis. Also on record: time < 7 hr, dose 10 mg/kg, route subcutaneous.
The nature of data set [2]: AUC(0 to infinity) in Sprague-Dawley rat plasma at 10 mg/kg, sc by LC-MS/MS analysis. On the set-up: dose 10 mg/kg, route subcutaneous, time infinity.
Data set [3] is described as follows: AUC(0 to 7 hrs) in Sprague-Dawley rat cerebrospinal fluid at 10 mg/kg, sc by LC-MS/MS analysis. Also on record: time < 7 hr, dose 10 mg/kg, route subcutaneous.
A short description of data set [4]: AUC(0 to infinity) in Sprague-Dawley rat cerebrospinal fluid at 10 mg/kg, sc by LC-MS/MS analysis. On the set-up: time infinity, dose 10 mg/kg, route subcutaneous.
The nature of data set [5]: Ratio of drug level in brain to plasma in Sprague-Dawley rat at 10 mg/kg, sc by LC-MS/MS analysis. On the set-up: dose 10 mg/kg, route subcutaneous. As to conditions: read-out: BPR.
Data set [6] in a line: Ratio of unbound brain concentration to drug level in cerebrospinal fluid in Sprague-Dawley rat at 10 mg/kg, sc by LC-MS/MS analysis. Also on record: dose 10 mg/kg, route subcutaneous. The settings on record: in vivo.
Data set [7] is described as follows: Ratio of unbound drug level in brain to plasma in Sprague-Dawley rat at 10 mg/kg, sc by LC-MS/MS analysis. Also on record: dose 10 mg/kg, route subcutaneous.
A short description of data set [8]: AUC(0 to 7 hrs) in Sprague-Dawley rat brain at 10 mg/kg, sc by LC-MS/MS analysis. On the set-up: time < 7 hr, dose 10 mg/kg, route subcutaneous.
The nature of data set [9]: AUC(0 to infinity) in Sprague-Dawley rat brain at 10 mg/kg, sc by LC-MS/MS analysis. Also on record: time infinity, dose 10 mg/kg, route subcutaneous.
Data set [10] is described as follows: AUC(0 to 7 hrs) in Sprague-Dawley rat plasma at 35 mg/kg, sc by LC-MS/MS analysis. Also on record: time < 7 hr, dose 35 mg/kg, route subcutaneous.
Data set [11] in a line: AUC(0 to infinity) in Sprague-Dawley rat plasma at 35 mg/kg, sc by LC-MS/MS analysis. On the set-up: time infinity, dose 35 mg/kg, route subcutaneous.
Data set [12] can be described thus: AUC(0 to 7 hrs) in Sprague-Dawley rat cerebrospinal fluid at 35 mg/kg, sc by LC-MS/MS analysis. On the set-up: time < 7 hr, dose 35 mg/kg, route subcutaneous.
The nature of data set [13]: AUC(0 to infinity) in Sprague-Dawley rat cerebrospinal fluid at 35 mg/kg, sc by LC-MS/MS analysis. On the set-up: dose 35 mg/kg, route subcutaneous, time infinity.
Data set [14] relates to Nucleic Acid. As to the kind of experiment: Ratio of drug level in brain to plasma in Sprague-Dawley rat at 35 mg/kg, sc by LC-MS/MS analysis. On the set-up: dose 35 mg/kg, route subcutaneous.
In data set [15] the test system is Nucleic Acid. Nature of the data set: Ratio of drug level in cerebrospinal fluid to unbound plasma concentration in Sprague-Dawley rat at 35 mg/kg, sc by LC-MS/MS analysis. Also on record: dose 35 mg/kg, route subcutaneous. As to conditions: in vivo.
Data set [16] is described as follows: Ratio of unbound brain concentration to drug level in cerebrospinal fluid in Sprague-Dawley rat at 35 mg/kg, sc by LC-MS/MS analysis. Also on record: dose 35 mg/kg, route subcutaneous. The settings on record: in vivo.
The nature of data set [17]: Ratio of unbound drug level in brain to plasma in Sprague-Dawley rat at 35 mg/kg, sc by LC-MS/MS analysis. On the set-up: dose 35 mg/kg, route subcutaneous.
Data set [18] can be described thus: AUC(0 to 7 hrs) in Sprague-Dawley rat brain at 35 mg/kg, sc by LC-MS/MS analysis. On the set-up: time < 7 hr, dose 35 mg/kg, route subcutaneous.
Data set [19] is described as follows: AUC(0 to infinity) in Sprague-Dawley rat brain at 35 mg/kg, sc by LC-MS/MS analysis. On the set-up: dose 35 mg/kg, route subcutaneous, time infinity.

Molecules are shown by their SMILES.

With `CN(C)CCCC1(c2ccc(F)cc2)OCc2cc(C#N)ccc21` (racemic) [CITALOPRAM], the AUC(0-t) (usually the area under the concentration-time curve up to a stated or last time point) at 7 h in data set [1] came out at 0.93 µg·h/mL; in data set [3], 0.401 µg·h/mL; in [8], 12.5 µg·h/mL. In addition, the results for the AUC(0-inf) in [2], in data set [4] and in data set [9] were 0.958 µg·h/mL, 0.421 µg·h/mL and 12.9 µg·h/mL, respectively. In addition, the Kp in [5] came to 13.4. Moreover, the Ratio in [6] is reported as 0.89. Further, the Kp uu in data set [7] is 1.08.
Regarding `C=C[C@H]1C[N@@]2CC[C@H]1C[C@@H]2[C@@H](O)c1ccnc2ccc(OC)cc12` [QUINIDINE], the AUC(0-t) at 7 h is 4.92 µg·h/mL in [10], 0.302 µg·h/mL in data set [12] and 1.85 µg·h/mL in data set [18]. Moreover, the figures for the AUC(0-inf) in [11], in [13] and in data set [19] were 5.31 µg·h/mL, 0.304 µg·h/mL and 1.88 µg·h/mL, respectively. In addition, the BPR in the data set with Nucleic Acid [14] came out at 0.38. For the same molecule, the values for the Ratio (in the data set with Nucleic Acid [15]; in data set [16]) were 0.23 and 0.22, respectively. The Kp uu in [17] amounted to 0.05.
